Laboratory results taken from ChEMBL document CHEMBL5465560, “Selectivity Literature for EUbOPEN Chemogenomic Library” (2024).

Legend:
[1] = biological target: T1, Activin receptor type-1B (Homo sapiens) (UniProt P36896); assay: Selectivity interaction (KinomeScan (DiscoverX)) EUB0000092b ACVR1B; details: at 10 µM
T1 sequence (whole entry): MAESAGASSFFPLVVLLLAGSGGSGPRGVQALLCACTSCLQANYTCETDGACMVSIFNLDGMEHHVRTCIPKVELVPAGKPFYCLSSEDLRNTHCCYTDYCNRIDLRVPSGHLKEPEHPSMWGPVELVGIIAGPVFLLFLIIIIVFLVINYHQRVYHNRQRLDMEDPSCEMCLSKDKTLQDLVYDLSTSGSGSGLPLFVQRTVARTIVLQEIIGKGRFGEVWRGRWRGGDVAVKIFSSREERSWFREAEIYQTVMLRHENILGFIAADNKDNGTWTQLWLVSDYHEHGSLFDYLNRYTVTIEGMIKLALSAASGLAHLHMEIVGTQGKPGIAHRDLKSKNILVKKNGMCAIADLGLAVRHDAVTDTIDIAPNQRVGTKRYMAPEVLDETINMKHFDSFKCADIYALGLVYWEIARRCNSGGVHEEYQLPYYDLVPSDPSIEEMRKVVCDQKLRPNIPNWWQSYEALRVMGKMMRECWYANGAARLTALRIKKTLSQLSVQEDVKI

[2] = biological target: Macrophage-stimulating protein receptor (Homo sapiens, UniProt Q04912); assay: Selectivity interaction (Upstate Kinase Profiler service (Millipore)) EUB0000056c MST1R; details: at 1 µM
[3] = biological target: Serine/threonine-protein kinase tousled-like 2 (Homo sapiens) (UniProt Q86UE8); assay: Selectivity interaction (KinomeScan (DiscoverX)) EUB0000655a TLK2; details: at 10 µM
Chain of Serine/threonine-protein kinase tousled-like 2 (Homo sapiens) (Q86UE8 whole entry, looked up): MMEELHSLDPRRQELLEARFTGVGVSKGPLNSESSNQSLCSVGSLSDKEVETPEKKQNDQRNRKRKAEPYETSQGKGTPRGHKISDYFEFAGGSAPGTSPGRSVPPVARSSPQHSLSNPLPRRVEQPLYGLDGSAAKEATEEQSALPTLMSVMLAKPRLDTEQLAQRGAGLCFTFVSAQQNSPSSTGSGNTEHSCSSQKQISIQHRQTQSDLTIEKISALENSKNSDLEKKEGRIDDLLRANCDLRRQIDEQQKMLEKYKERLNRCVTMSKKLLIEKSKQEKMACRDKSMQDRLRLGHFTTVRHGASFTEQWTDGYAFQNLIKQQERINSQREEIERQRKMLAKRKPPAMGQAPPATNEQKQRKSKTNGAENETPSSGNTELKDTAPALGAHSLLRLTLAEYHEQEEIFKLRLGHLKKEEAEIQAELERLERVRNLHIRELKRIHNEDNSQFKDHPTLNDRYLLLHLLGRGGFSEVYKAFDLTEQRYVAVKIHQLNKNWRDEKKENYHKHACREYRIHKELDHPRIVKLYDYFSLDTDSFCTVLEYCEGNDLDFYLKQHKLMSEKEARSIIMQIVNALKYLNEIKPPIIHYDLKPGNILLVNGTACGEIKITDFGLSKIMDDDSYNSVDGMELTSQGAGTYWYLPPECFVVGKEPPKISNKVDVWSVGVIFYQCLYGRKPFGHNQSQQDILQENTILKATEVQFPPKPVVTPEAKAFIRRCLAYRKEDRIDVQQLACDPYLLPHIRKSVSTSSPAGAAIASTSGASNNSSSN

[4] = tested on: Epidermal growth factor receptor (Homo sapiens), P00533 [UNDEFINED MUTATION]; assay: Selectivity interaction (ProQinase) EUB0000171b EGFR; details: at 5 µM
[5] = biological target: Serine/threonine-protein kinase MARK1 (Homo sapiens) (UniProt Q9P0L2); assay: Selectivity interaction (ProQinase) EUB0000171b MARK1
Chain of Serine/threonine-protein kinase MARK1 (Homo sapiens) (Q9P0L2 whole entry, looked up): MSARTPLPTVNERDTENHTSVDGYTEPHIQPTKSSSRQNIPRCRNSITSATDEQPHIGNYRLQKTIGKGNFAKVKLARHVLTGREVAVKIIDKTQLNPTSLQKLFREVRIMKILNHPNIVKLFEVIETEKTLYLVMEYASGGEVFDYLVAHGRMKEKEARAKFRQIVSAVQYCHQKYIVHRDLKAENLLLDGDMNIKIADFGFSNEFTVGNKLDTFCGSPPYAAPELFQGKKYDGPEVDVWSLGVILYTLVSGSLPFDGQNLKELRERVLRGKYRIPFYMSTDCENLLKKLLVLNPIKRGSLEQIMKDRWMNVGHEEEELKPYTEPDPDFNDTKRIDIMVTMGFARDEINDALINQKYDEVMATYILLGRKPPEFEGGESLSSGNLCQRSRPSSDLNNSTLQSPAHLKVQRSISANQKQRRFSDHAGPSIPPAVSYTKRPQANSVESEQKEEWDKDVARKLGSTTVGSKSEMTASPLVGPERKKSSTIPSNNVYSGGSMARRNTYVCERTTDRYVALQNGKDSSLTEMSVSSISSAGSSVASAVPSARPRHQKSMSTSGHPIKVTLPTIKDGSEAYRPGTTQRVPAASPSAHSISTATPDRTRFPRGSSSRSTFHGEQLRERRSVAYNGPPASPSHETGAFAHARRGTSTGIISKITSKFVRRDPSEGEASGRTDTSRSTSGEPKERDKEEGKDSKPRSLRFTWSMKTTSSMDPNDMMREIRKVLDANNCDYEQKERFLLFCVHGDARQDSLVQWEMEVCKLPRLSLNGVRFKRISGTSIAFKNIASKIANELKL

[6] = biological target: Cyclin-dependent kinase 8 (Homo sapiens, UniProt P49336); assay: Selectivity interaction (KinomeScan (DiscoverX)) EUB0001079a CDK8; details: at 1 µM
Chain of Cyclin-dependent kinase 8 (P49336 whole entry): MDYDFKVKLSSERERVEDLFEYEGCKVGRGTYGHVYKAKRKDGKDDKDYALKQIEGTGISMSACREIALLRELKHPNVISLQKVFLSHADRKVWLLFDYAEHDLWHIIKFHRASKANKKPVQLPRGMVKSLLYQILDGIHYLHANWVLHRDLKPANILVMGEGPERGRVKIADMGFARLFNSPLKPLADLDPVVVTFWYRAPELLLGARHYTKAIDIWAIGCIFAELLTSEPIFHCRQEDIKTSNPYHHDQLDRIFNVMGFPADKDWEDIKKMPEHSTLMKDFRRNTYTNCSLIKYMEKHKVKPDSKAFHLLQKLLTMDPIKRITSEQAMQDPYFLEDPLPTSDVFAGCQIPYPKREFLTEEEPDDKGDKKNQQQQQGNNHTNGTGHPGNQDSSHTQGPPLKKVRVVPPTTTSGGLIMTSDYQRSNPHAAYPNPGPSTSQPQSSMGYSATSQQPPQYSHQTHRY

[7] = biological target: T2, Serine/threonine-protein kinase RIO1 (Homo sapiens) (UniProt Q9BRS2); assay: Selectivity interaction (KinomeScan (DiscoverX)) EUB0001079a RIOK1; details: at 1 µM
T2 sequence (whole entry): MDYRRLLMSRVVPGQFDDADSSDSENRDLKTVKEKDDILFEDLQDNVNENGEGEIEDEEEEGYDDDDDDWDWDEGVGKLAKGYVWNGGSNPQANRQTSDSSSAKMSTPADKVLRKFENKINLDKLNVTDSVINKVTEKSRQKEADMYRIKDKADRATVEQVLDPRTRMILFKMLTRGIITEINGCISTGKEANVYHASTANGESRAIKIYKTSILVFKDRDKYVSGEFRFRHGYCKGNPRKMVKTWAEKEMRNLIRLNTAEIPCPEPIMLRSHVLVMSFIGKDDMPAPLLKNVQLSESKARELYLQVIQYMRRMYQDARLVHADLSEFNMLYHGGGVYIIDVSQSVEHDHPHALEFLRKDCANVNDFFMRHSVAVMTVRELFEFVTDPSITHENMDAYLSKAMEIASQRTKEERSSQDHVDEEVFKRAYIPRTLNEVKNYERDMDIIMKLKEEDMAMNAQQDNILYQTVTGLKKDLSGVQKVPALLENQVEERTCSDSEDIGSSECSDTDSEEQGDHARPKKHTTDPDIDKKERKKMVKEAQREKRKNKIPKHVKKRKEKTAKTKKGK

[8] = biological target: Fibroblast growth factor receptor 3 (Homo sapiens, UniProt P22607); assay: Selectivity interaction (Millipore kinase profiler) EUB0000124b FGFR3; details: at 10 µM
[9] = biological target: MAP kinase-activated protein kinase 2 (Homo sapiens, UniProt P49137)
Chain of MAP kinase-activated protein kinase 2 (P49137 whole entry): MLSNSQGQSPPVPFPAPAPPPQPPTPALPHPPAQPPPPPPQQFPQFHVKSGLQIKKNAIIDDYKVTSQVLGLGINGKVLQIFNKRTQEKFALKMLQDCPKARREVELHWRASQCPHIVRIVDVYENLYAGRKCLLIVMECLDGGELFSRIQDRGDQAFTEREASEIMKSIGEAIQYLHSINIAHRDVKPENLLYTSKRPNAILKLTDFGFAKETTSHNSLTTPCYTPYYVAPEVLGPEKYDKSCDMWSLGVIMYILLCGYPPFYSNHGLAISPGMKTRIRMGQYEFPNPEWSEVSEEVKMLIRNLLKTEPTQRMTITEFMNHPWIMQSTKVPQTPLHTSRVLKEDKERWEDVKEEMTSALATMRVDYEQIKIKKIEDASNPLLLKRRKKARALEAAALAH

[10] = biological target: Serine/threonine-protein kinase PLK2 (Homo sapiens, UniProt Q9NYY3); assay: Selectivity interaction (Kinase panel (Invitrogen)) EUB0000639a PLK2; details: at 200 nM
Chain of Serine/threonine-protein kinase PLK2 (Q9NYY3 whole entry, looked up): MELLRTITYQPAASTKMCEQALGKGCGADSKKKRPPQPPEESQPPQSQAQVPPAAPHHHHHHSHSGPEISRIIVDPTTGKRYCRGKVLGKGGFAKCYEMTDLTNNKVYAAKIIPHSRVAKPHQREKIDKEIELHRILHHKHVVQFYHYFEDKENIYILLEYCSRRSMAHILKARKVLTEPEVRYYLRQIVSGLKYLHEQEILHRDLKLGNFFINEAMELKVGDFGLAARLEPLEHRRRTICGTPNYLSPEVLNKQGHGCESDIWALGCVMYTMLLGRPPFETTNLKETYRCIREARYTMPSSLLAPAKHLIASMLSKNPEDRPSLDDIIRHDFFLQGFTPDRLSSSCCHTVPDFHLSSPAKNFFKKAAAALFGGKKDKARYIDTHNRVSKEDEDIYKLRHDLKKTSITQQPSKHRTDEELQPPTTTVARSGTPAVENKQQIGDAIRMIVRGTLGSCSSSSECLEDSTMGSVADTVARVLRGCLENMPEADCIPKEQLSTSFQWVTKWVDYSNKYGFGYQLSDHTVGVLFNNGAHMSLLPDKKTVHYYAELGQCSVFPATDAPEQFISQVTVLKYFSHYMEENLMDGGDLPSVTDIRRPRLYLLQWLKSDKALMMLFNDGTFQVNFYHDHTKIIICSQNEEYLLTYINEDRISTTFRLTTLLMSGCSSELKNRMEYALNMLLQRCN

[11] = biological target: T3, MAP kinase-activated protein kinase 5 (Homo sapiens) (UniProt Q8IW41); assay: Selectivity interaction (KinomeScan (DiscoverX)) EUB0000595a MAPKAPK5; details: at 10 µM
T3 sequence (whole entry): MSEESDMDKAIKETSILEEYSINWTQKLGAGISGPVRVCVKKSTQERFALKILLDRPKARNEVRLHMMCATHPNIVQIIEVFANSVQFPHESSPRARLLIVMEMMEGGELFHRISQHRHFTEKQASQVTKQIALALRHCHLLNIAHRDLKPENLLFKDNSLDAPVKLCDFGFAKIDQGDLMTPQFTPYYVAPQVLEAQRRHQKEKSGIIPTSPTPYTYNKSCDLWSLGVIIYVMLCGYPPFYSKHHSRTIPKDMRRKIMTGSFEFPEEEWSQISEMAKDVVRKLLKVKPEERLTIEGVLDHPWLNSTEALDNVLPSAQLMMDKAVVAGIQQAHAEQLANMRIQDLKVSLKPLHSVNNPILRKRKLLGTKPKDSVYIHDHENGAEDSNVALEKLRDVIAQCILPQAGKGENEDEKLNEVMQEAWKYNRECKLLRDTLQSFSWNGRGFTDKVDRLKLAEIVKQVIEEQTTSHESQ

[12] = tested on: Phosphatidylinositol 4,5-bisphosphate 3-kinase catalytic subunit alpha isoform (Homo sapiens), P42336 [M1043I]; details: at 10 µM
[13] = biological target: RAC-alpha serine/threonine-protein kinase (Homo sapiens, UniProt P31749); assay: Selectivity interaction (Ambit KINOMEscan and KiNATiv profiling in Jurkat cells) EUB0000090b AKT1; assay type: cell-based; details: at 1 µM
Chain of RAC-alpha serine/threonine-protein kinase (P31749 whole entry): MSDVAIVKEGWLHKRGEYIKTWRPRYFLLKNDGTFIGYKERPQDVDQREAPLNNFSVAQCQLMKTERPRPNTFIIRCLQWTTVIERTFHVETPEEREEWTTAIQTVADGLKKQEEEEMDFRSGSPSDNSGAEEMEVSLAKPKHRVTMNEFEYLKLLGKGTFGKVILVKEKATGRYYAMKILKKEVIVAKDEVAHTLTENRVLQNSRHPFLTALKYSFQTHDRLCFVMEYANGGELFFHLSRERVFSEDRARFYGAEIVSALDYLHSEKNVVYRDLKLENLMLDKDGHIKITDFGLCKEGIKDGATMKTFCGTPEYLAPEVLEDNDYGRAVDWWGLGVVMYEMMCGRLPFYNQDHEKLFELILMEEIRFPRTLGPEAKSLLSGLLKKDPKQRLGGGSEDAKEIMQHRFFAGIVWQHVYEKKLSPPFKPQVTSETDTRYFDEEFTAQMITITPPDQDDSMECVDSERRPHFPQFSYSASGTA

[14] = biological target: T4, Dual specificity mitogen-activated protein kinase kinase 4 (Homo sapiens) (UniProt P45985); assay: Selectivity interaction (Kinase screening (Upstate/Millipore)) EUB0000604a MAP2K4
T4 sequence (whole entry): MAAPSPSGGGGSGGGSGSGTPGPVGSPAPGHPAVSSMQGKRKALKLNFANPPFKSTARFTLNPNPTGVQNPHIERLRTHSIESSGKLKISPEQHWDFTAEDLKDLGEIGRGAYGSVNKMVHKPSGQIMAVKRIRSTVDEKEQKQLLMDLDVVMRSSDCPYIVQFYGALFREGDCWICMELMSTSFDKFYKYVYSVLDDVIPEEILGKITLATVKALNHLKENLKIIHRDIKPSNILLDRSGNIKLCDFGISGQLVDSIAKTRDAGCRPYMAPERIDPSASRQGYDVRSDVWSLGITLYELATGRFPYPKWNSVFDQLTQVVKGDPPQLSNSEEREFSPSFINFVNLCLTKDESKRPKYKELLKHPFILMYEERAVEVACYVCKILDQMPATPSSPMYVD

[15] = biological target: Casein kinase I isoform epsilon (Homo sapiens, UniProt P49674); assay: Selectivity interaction (KinomeScan (DiscoverX)) EUB0001619a CSNK1E; details: at 1 µM
[16] = biological target: Rho-associated protein kinase 1 (Homo sapiens) (UniProt Q13464); assay: Selectivity interaction (KinomeScan (DiscoverX)) EUB0001619a ROCK1; details: at 1 µM
Chain of Rho-associated protein kinase 1 (Homo sapiens) (Q13464 2-1354 limits assumed): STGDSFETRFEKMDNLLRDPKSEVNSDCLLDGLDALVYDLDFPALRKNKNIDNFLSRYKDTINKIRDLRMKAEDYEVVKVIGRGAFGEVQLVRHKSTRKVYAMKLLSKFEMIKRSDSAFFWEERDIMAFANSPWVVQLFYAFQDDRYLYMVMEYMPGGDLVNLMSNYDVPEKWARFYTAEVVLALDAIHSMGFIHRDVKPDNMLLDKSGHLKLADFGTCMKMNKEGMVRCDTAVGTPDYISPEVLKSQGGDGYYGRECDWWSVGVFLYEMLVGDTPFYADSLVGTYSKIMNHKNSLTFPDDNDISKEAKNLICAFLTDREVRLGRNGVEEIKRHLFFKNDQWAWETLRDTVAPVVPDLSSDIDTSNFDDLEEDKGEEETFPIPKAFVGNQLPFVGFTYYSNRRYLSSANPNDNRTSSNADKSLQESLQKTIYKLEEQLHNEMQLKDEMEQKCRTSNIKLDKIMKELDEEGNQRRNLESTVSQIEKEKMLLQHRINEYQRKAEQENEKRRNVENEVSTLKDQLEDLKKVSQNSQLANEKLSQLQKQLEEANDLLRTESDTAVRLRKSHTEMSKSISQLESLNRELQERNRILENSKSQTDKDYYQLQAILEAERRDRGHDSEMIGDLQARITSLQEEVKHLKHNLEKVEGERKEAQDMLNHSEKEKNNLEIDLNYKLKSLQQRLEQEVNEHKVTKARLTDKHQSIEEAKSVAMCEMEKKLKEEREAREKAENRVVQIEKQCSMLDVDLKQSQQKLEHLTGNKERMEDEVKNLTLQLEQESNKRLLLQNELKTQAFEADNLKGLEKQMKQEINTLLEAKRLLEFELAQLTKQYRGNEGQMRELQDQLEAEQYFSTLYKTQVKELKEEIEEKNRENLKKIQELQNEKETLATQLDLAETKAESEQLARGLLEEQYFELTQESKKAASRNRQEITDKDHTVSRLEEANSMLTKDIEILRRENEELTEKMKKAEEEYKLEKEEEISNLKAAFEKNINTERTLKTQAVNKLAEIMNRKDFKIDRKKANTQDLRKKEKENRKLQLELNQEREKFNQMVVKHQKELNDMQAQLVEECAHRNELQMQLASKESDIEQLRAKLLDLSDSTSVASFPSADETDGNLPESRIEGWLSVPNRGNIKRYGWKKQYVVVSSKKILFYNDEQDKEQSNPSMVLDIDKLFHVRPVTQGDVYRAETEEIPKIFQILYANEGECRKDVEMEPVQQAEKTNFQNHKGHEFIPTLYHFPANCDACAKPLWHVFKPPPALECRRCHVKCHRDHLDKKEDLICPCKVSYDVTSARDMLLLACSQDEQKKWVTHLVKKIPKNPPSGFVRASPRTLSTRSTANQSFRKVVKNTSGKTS

## CCC(=O)N1CCN(c2ccc(-n3c(=O)ccc4cnc5ccc(-c6cnc7ccccc7c6)cc5c43)cc2C(F)(F)F)CC1
[1]
  % of control: 45%

## Cc1ccc(-c2ccc3c(ccc4sc5c(c43)NC[C@@H](C)NC5=O)n2)cn1
[2]
  % of inhibition: 20%

## CN(C)CCOc1ccc(-c2nc(-c3ccncc3)c(-c3ccc4c(c3)CC/C4=N\O)[nH]2)cc1
[3]
  % of control: 86%

## C=CC(=O)Nc1cccc(C(=O)Nc2ccc(Nc3cc(-c4[nH]c(SC)nc4C)ccn3)cc2)c1
[4]
  % of control: 86%
[5]; at 1 µM
  % of control: 100%
[5]; at 5 µM
  % of control: 88%

## Nc1cnc(N2CCc3cc(S(=O)(=O)Nc4c(F)cc(Cl)cc4F)cc(N4CCCC4=O)c32)nc1 [TP-020n]
[6]
  % of control: 100%
[7]
  % of control: 100%

## CC(=O)Nc1cccc(-n2c(=O)n(C3CC3)c(=O)c3c(Nc4ccc(I)cc4F)n(C)c(=O)c(C)c32)c1
[8]
  % of control: 98%

## CCc1cccc(CC)c1NC(=O)c1nn(C)c2c1CCc1cnc(Nc3ccc(C(=O)NC4CCN(C)CC4)cc3OC(F)(F)F)nc1-2
[9]
  IC50: > 10 µM

## CC[C@@H]1[C@H](F)C(=O)N[C@@H]1COc1nccc2cc(C(N)=O)c(OC)cc12 [ZIMLOVISERTIB]
[10]
  % of inhibition: 5.58%

## COCC(=O)NC/C=C/c1ccc2ncnc(Nc3ccc(Oc4ccc(C)nc4)c(C)c3)c2c1 [CP-724714]
[11]
  % of control: 100%
[12]
  % of control: 100%

## CN(C)C/C=C/C(=O)Nc1ccc(C(=O)N2CCCC(Nc3ncc(Cl)c(-c4c[nH]c5ccccc45)n3)C2)cc1 (configuration not stated)
[13]
  % of control: 92%

## Cc1cnc(Nc2ccc(F)cc2Cl)nc1-c1c[nH]c(C(=O)N[C@H](CO)c2cccc(Cl)c2)c1
[14]
  % of inhibition: 69%

## N#Cc1cccc(-c2c[nH]c3ncnc(N4CCOCC4)c23)c1
[15]
  % of control: 75%
[16]
  % of control: 85%
